Tests used:
[1] = system: F1112 (bovine colonic cell line); experiment: Uptake of labeled peptides by F1112 cells, photometric cell imaging; type: cell-based; details: for Average concentration of labeled peptide measured in cells, F1112: cells exposed to labeled peptide at 17 μM; for Photometric Cell Imaging (average counts/sec) F1112: 1 hr, background about 1×10^5 counts/sec
Description: (§1) Caco-2 and F1112 cells are cultured in Dulbecco's Modified Eagle Medium (DMEM) containing 10% (v/v) fetal bovine serum (FBS) and 50 μg/ml gentamycin at 37° C. in a 95% humidified atmosphere containing 5% CO2. The cells are grown in Falcon™ […] 75 cm^2 cell culture flasks until they reach confluency, then are detached with 0.25% trypsin and 0.02% EDTA and washed with DMEM.
(§2) Preparations used for photometric cell imaging are prepared by adding 1000 cells to a Nunc coverglass chamber (2.5 cm^2). Cells are cultured as described above for 3 to 7 days. The cell monolayers are rinsed three times with epithelial cell saline (pH 7.4).
(§3) Varying concentrations of fluoresceinated mTPs (100 μM) are added to epithelial cell saline to obtain a final working volume of 400 μl. Final concentrations added to the Caco-2, F1112 and MG cell monolayers as described above are 17 μM, 9 μM and 4 μM. Cells are incubated with the peptides for 1 hr in the dark at 37° C. in a 95% humidified atmosphere containing 5% CO2. At the end of the incubation period, the cell monolayer is rinsed three times with epithelial cell saline and 500 μl of epithelial cell saline is added.
(§4) Uptake of labeled peptides by cells is quantified using a photometric detector/cell-imaging system (PTI). An excitation scan is run to determine if uptake has occurred as indicated by peaks at the appropriate wavelengths and if the amount changes in a dose-dependent manner compared to unlabeled cells. A time-based scan is then performed at the optimal excitation and emission wavelength to quantify total uptake, using about 20 cells/view/replicate.

[2] = system: MG (bovine mammary gland) cells; experiment: Uptake of labeled peptides by MG cells, photometric cell imaging; type: cell-based; details: for Average concentration of labeled peptide measured in cells, MG: cells exposed to labeled peptide at 17 μM; for Photometric Cell Imaging (average counts/sec) MG: 1 hr, background about 1×10^5 counts/sec
Description: as §1, with “MG” for “Caco-2 and F1112”, “20%” for “10%”, “Falcon™ 25” for “Falcon™”
as §2, §3, §4

tobacco protoplasts = experiment: Incubation of tobacco protoplasts with fluorescently labeled peptides, confocal microscopy; type: cell-based, Nicotiana benthamiana; details: fluorescein-labelled peptide 20 μM, 1 hour, confocal (Olympus)
Description: Nicotiana benthamiana plants are grown for 6-8 weeks and kept in the dark for 24 hrs prior to all experiments. All pipetting is done slowly with wide bore pipette tips to prevent protoplast lysis. Leaves are cut on the underside in many shallow thin slices, with the center vein taken out, and incubated underside down with enzyme digest solution [2% cellulase and 2% macerozyme (Yakult Honsha Co Ltd, Japan) in CPW (cell protoplast washing) solution, pH 5.6 (Frearson E M, Power J B, Cocking E C (1973) Dev Biol 33: 130-137)] in […] Petri dishes for 3-5 hrs at 28° C. After incubation, leaves are gently shaken with forceps to release any remaining protoplasts, and medium is gently filtered through […] sieves and transferred into 50 mL centrifuge tubes. The medium is spun for 5 min at 300 g at 4° C., and a floating band of protoplasts is removed from the top of the suspension, resuspended in W5 wash solution (154 mM NaCl, 125 mM CaCl2.2H2O, 5 mM KCl, 5 mM glucose, 0.5 M mannitol adjusted to pH 5.8 with 0.1 M KOH), and spun for 3 mins at 300 g at 4° C. The pellet is gently layered on 5 mL of 20% maltose in a 15 mL centrifuge tube, and centrifuged 5 mins at 300 g. A floating band in the center of the solution is carefully removed and resuspended with MaMg solution (15 mM MgCl2, 0.1% MES, 0.4 M mannitol, adjusted to pH 5.6 with KOH), and spun for 3 mins at 300 g at 4° C. The protoplast suspension is diluted to 100,000 cells/ml using a hemocytometer.
A stock solution of fluoresceinated mTPs or cTPs (100 μM) prepared with sterile optimum water is added to protoplast suspension at a final concentration of 20 μM. Each suspension is incubated at room temperature for 1 hour in the dark. Following incubation, 25% Trypsin EDTA is added for 5 minutes and the solution is centrifuged for 2 minutes at 120 g. The pellet is resuspended in fresh MaMg media, and 1.5 μL MitoTracker® Orange CM-H2TMRos (M7511, Invitrogen) is added for 15 minutes, followed by centrifugation for 2 minutes at 120 g. Protoplasts are mounted on slides in 1% low melting point agar (2:1 ratio of agar to protoplast suspension) for confocal microscopy (Olympus; both XY cross section and XYZ depth images).
Cells are observed using a confocal microscope (Nikon C1, Nikon Canada Inc. or Olympus FluoView™) to analyse the localization of the fluoresceinated mTPs or cTPs (excitation wavelength 490 nm/emission wavelength 520 nm). Chloroplasts are identified by autofluorescence. The fluorescent dye MitoTracker® Orange CM-H2TMRos (M7511, Invitrogen) is used to stain mitochondria (excitation wavelength 554 nm/emission wavelength 576 nm). Fluorescence emissions are collected in z-confocal planes of […] and analyzed using EZ-C1 Software Version 3.6 (Nikon) or Olympus FluoView™ software version 2.0b (Olympus).

For “MWWRRSRTNSLRYT (listed as Arabidopsis thaliana) [mTP4]”, the “Average concentration of labeled peptide measured in cells, F1112” value (“Average concentration … F1112” for short) [1] was 144 nm, the “Photometric Cell Imaging (average counts/sec) F1112” value ([1]; labeled peptide 4 μM) was 250000 counts/sec and the “Photometric Cell Imaging (average counts/sec) F1112” value ([1]; labeled peptide 9 μM) was 300000 counts/sec. The “Photometric Cell Imaging (average counts/sec) F1112” value ([1]; labeled peptide 17 μM) was 3500000 counts/sec, the “Average concentration of labeled peptide measured in cells, MG” value (“Average concentration … MG” below) [2] was 58 nm and the “Photometric Cell Imaging (average counts/sec) MG” value ([2]; labeled peptide 4 μM) was 430000 counts/sec. The “Photometric Cell Imaging (average counts/sec) MG” value ([2]; labeled peptide 9 μM) was 1200000 counts/sec and the “Photometric Cell Imaging (average counts/sec) MG” value ([2]; labeled peptide 17 μM) was 1400000 counts/sec.
For “MGGCVSTPKSCVGAKLR (listed as Arabidopsis thaliana) [cTP1]”, the Organelle localization (tobacco protoplasts) was “localize to chloroplasts”.
In the case of “MLFRLRRSVRLRGLLA (listed as Arabidopsis thaliana) [mTP5]”, the “Average concentration … F1112” value [1] is reported as 60 nm, the “Photometric Cell Imaging (average counts/sec) F1112” value ([1]; labeled peptide 4 μM) is reported as 440000 counts/sec and the “Photometric Cell Imaging (average counts/sec) F1112” value ([1]; labeled peptide 9 μM) is reported as 2000000 counts/sec. For the same sequence, the “Photometric Cell Imaging (average counts/sec) F1112” value ([1]; labeled peptide 17 μM) was 1600000 counts/sec, the “Average concentration … MG” value [2] was 60 nm and the “Photometric Cell Imaging (average counts/sec) MG” value ([2]; labeled peptide 4 μM) was 440000 counts/sec. For the same sequence, the “Photometric Cell Imaging (average counts/sec) MG” value ([2]; labeled peptide 9 μM) was 1400000 counts/sec and the “Photometric Cell Imaging (average counts/sec) MG” value ([2]; labeled peptide 17 μM) was 1600000 counts/sec.
MAAWMRSLFSPLKKLWIRMH (Zea mays) [mTP2] was tested, and the Organelle localization (tobacco protoplasts) was “localize to mitochondria”, the “Average concentration … F1112” value [1] was 70 nm and the “Photometric Cell Imaging (average counts/sec) F1112” value ([1]; labeled peptide 4 μM) was 450000 counts/sec. For the same sequence, the “Photometric Cell Imaging (average counts/sec) F1112” value ([1]; labeled peptide 9 μM) was 1800000 counts/sec, the “Photometric Cell Imaging (average counts/sec) F1112” value ([1]; labeled peptide 17 μM) was 1700000 counts/sec and the “Average concentration … MG” value [2] was 62 nm. The “Photometric Cell Imaging (average counts/sec) MG” value ([2]; labeled peptide 4 μM) was 140000 counts/sec, the “Photometric Cell Imaging (average counts/sec) MG” value ([2]; labeled peptide 9 μM) was 160000 counts/sec and the “Photometric Cell Imaging (average counts/sec) MG” value ([2]; labeled peptide 17 μM) was 1500000 counts/sec.
With “MFSYLPRYPLRAASARALVRATRPSYRSALLRYQ (listed as Triticum aestivum) [mTP1]” the “Average concentration … F1112” value [1] was 49 nm, the “Photometric Cell Imaging (average counts/sec) F1112” value ([1]; labeled peptide 4 μM) was 330000 counts/sec and the “Photometric Cell Imaging (average counts/sec) F1112” value ([1]; labeled peptide 9 μM) was 560000 counts/sec. For the same sequence, the “Photometric Cell Imaging (average counts/sec) F1112” value ([1]; labeled peptide 17 μM) was 1200000 counts/sec, the “Average concentration … MG” value [2] was 78 nm and the “Photometric Cell Imaging (average counts/sec) MG” value ([2]; labeled peptide 4 μM) was 400000 counts/sec. The “Photometric Cell Imaging (average counts/sec) MG” value ([2]; labeled peptide 9 μM) was 1800000 counts/sec and the “Photometric Cell Imaging (average counts/sec) MG” value ([2]; labeled peptide 17 μM) was 1900000 counts/sec.
For “MAALIPAIASLPRAQVEKPHPMPVSTRPGLVS (listed as Triticum aestivum) [cTP4]”, the Organelle localization (tobacco protoplasts) was “localize to chloroplasts”.
In the case of “MKLLWRLILSRKW (listed as Arabidopsis thaliana) [mTP3]”, the Organelle localization (tobacco protoplasts) is reported as “localize to mitochondria”, the “Average concentration … F1112” value [1] is reported as 53 nm and the “Photometric Cell Imaging (average counts/sec) F1112” value ([1]; labeled peptide 4 μM) is reported as 350000 counts/sec. For the same sequence, the “Photometric Cell Imaging (average counts/sec) F1112” value ([1]; labeled peptide 9 μM) was 1100000 counts/sec, the “Photometric Cell Imaging (average counts/sec) F1112” value ([1]; labeled peptide 17 μM) was 1300000 counts/sec and the “Average concentration … MG” value [2] was 62 nm. The “Photometric Cell Imaging (average counts/sec) MG” value ([2]; labeled peptide 4 μM) was 430000 counts/sec, the “Photometric Cell Imaging (average counts/sec) MG” value ([2]; labeled peptide 9 μM) was 1000000 counts/sec and the “Photometric Cell Imaging (average counts/sec) MG” value ([2]; labeled peptide 17 μM) was 1500000 counts/sec.
With “MQTLTASSSVSSIQRHRPHPAGRRSSSVTFS (listed as Triticum aestivum) [cTP2]” the Organelle localization (tobacco protoplasts) was “localize to chloroplasts”.
In the case of “MSSPPPLFTSCLPASSPSIRRDSTSGSVTSPLR (listed as Arabidopsis thaliana) [cTP5]”, the Organelle localization (tobacco protoplasts) is reported as “localize to chloroplasts”.
